Consider 16 molecules from ChEMBL document CHEMBL1143663, “Brucella suis histidinol dehydrogenase: synthesis and inhibition studies of a series of substituted benzylic ketones derived from histidine” (Bioorg Med Chem, 2007).

T1: Histidinol dehydrogenase (Brucella suis biovar 1 (strain 1330), UniProt Q8G2R2)
T1 sequence (Q8G2R2 whole entry): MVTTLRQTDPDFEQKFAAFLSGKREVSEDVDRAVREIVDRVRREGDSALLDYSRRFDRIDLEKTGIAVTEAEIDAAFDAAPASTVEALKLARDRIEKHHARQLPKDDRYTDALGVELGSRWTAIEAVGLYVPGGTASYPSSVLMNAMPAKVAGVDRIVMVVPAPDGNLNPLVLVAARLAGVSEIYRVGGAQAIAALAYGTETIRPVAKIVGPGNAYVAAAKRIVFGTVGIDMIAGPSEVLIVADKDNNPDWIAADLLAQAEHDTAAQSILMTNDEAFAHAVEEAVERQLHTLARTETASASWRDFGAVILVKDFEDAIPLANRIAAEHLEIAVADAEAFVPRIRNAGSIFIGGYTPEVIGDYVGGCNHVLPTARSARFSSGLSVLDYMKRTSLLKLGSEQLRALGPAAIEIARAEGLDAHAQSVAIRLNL

B1: Histidinol dehydrogenase (Brucella suis biovar 1 (strain 1330)), Q8G2R2 (protein)
chain: MVTTLRQTDPDFEQKFAAFLSGKREVSEDVDRAVREIVDRVRREGDSALLDYSRRFDRIDLEKTGIAVTEAEIDAAFDAAPASTVEALKLARDRIEKHHARQLPKDDRYTDALGVELGSRWTAIEAVGLYVPGGTASYPSSVLMNAMPAKVAGVDRIVMVVPAPDGNLNPLVLVAARLAGVSEIYRVGGAQAIAALAYGTETIRPVAKIVGPGNAYVAAAKRIVFGTVGIDMIAGPSEVLIVADKDNNPDWIAADLLAQAEHDTAAQSILMTNDEAFAHAVEEAVERQLHTLARTETASASWRDFGAVILVKDFEDAIPLANRIAAEHLEIAVADAEAFVPRIRNAGSIFIGGYTPEVIGDYVGGCNHVLPTARSARFSSGLSVLDYMKRTSLLKLGSEQLRALGPAAIEIARAEGLDAHAQSVAIRLNL

The target in the first series is T1, Histidinol dehydrogenase. The series is described as follows: Inhibition of Brucella suis histidinol dehydrogenase.
In turn, `N[C@@H](Cc1c[nH]cn1)C(=O)Cc1ccc(F)cc1F` displayed an IC50 of 10 nM. That is a double-digit nanomolar value.

The molecule `N[C@@H](Cc1c[nH]cn1)C(=O)Cc1ccc(-c2ccccc2)cc1` came in with an IC50 of 12.5 nM. The IC50 values of the last two molecules are within 1.5-fold of each other.

As to `N[C@@H](Cc1c[nH]cn1)C(=O)Cc1ccc2ccccc2c1`, the IC50 stood at 14.5 nM.

As to `N[C@@H](Cc1c[nH]cn1)C(=O)Cc1ccc(OCc2ccccc2)cc1`, the IC50 amounted to 3 nM.

`N[C@@H](Cc1c[nH]cn1)C(=O)Cc1ccc(Br)cc1`: the IC50 was 6 nM. This IC50 lies about 2-fold higher than the previous one.

On to `N[C@@H](Cc1c[nH]cn1)C(=O)Cc1ccc(F)cc1`, for which 15 nM corresponded to half-maximal inhibition (IC50). Compared with the last molecule, the IC50 is about 2.5-fold higher.

As for `N[C@@H](Cc1c[nH]cn1)C(=O)Cc1ccccc1`, the 50% inhibitory concentration (IC50) worked out at 40 nM.

Molecule `N[C@@H](Cc1c[nH]cn1)C(=O)Cc1ccc2c(c1)OCO2` displayed a 50% inhibitory concentration (IC50) of 25 nM.

Molecule `N[C@@H](Cc1c[nH]cn1)C(=O)Cc1ccc(Cl)cc1` returned an IC50 of 12 nM.

With `COc1ccc(CC(=O)[C@@H](N)Cc2c[nH]cn2)cc1`, the IC50 came out at 150 nM.

In turn, `Cc1ccc(CC(=O)[C@@H](N)Cc2c[nH]cn2)cc1` had an IC50 of 15 nM.

In turn, `N[C@@H](Cc1c[nH]cn1)C(=O)Cc1ccc(Oc2ccccc2)cc1` came in with a half-inhibitory concentration (IC50) of 16 nM. This IC50 and that of the molecule before are within 1.5-fold of each other.

For the molecule `N[C@@H](Cc1c[nH]cn1)C(=O)Cc1cccc2ccccc12`, the IC50 was 200 nM. This IC50 is about 12-fold higher than that of the molecule before.

`N[C@@H](Cc1c[nH]cn1)C(=O)Cc1ccc(Cl)c(Cl)c1` returned an IC50 of 20 nM.

On to `N[C@@H](Cc1c[nH]cn1)C(=O)Cc1c(F)c(F)c(F)c(F)c1F`, for which half-maximal inhibition (IC50) required 70 nM.

Substrate in another series: N[C@H](CO)Cc1c[nH]cn1
As to the kind of experiment: Activity of Brucella suis histidinol dehydrogenase.
B1: the Km was found to be 12 µM.

What is called IC50 is the concentration that inhibits the measured activity by half. The term Km denotes the concentration of substrate that gives half-maximal velocity.
